# Reference: patent publication US9097722B2, “PARP substrates and biomarkers” (Board of Regents, The University of Texas System, priority 2012, dated 2015)
# Entries after “also recorded” stand apart in the source; their conditions may differ.
# Assays:
# [1] = test system: PARP; experiment: Immunoblotting of protein PARylation in cells after MNNG or H2O2 treatment; format: cell-based, human; conditions: for H2O2-induced PARP activation (immunoblotting): 1 μM treatment
# Source text: We sought to develop an approach towards a global characterization of Asp/Glu-ADP-ribosylation. […] The major cellular enzymatic activity for degrading PAR is from poly-ADP-ribose glycohydrolase (PARG)^2.
# Cells and Reagents: HCT116 and HEK293T cells were purchased from ATCC and were maintained in Dulbecco's modified Eagle's medium (DMEM) supplemented with 10% fetal bovine serum. PARP inhibitors were purchased from Selleck. […] Other chemicals and reagents were obtained from Sigma unless indicated otherwise.
# Immunoblotting analysis: Samples were subjected to electrophoresis using the standard SDS-PAGE method. Proteins were transferred to a nitrocellulose membrane (Whatman). Membranes were blocked with a TBST buffer (25 mM Tris-HCl, pH 7.5, 150 mM NaCl, 0.05% Tween 20) containing 3% nonfat dried milk, and probed overnight with primary antibodies at 4° C. and for 1 h at RT with peroxidase-conjugated secondary antibodies. Blots were developed using enhanced chemiluminescence, exposed on autoradiograph film and developed using standard methods.
# [2] = test system: tankyrase; conditions: cited from earlier work
# [3] = test system: PARP; experiment: SILAC quantitative mass spectrometric analysis of the Asp/Glu-ADP-ribosylated proteome in HCT116 shPARG cells; format: cell-based, human; conditions: for change in protein Asp/Glu-ADP-ribosylation compared with that of Olaparib: 1 μM
# Protocol: SILAC cell culture: Cells (HCT116 shPARG) were grown in the SILAC media as described previously^23. Both light and heavy DMEM were supplemented with 10% dialyzed FBS (Invitrogen). Where indicated, cells were pretreated with 1 μM Olaparib for 40 min and were stimulated with 2 mM H2O2 for 5 min We performed two experiments using this experimental design with single labeling with Lys (sample digested with Lys-C) or double labeling with Lys and Arg (sample digested with trypsin). Each experiment was composed of two technical replicate analyses. The same experiment (Lys labeling only) was repeated for four other PARP inhibitors, including A966492 (1 μM), AG14361 (1 μM), Iniparib (50 μM) and 3-AB (50 μM).
# Sample preparation for mass spectrometric analysis: Cells were lysed in SDS lysis buffer (1% SDS, 10 mM HEPES pH 7.0, 2 mM MgCl2, 500 U Benzonase). Lysates were washed with SDS lysis buffer for three times using centricon ultrafiltration units (MWCO=10,000 Da, Millipore). Lysates were reduced by adding DTT to a final concentration of 3 mM, followed by incubation at room temperature for 20 min Cysteines were alkylated by adding iodoacetamide to a final concentration of 50 mM, followed by incubation in the dark for 20 min Lysates were digested with LysC (Wako) or trypsin (Promega) at a 1:100 (enzyme:substrate) ratio for 2 hrs at RT. pH of the lysates were adjusted to 8.5 and the lysates were incubated with m-aminophenylborinic acid agarose for 1 hr at RT. Beads were washed with the SDS wash buffer (1% SDS, 100 mM HEPES pH 8.5, 150 mM NaCl) for three times, and then the wash buffer (100 mM HEPES pH 8.5, 150 mM NaCl) for five times. Beads were incubated with 0.5 M NH2OH overnight. Released peptides were desalted on SepPak C18 columns (Waters) according to manufacturer's instructions.
# Mass spectrometry analysis and data processing: Samples were analyzed by LC-MS/MS on an LTQ-Velos Pro Orbitrap mass spectrometer (Thermo Fischer Scientific, San Jose, Calif.) using a top twenty method^23. MS/MS spectra were searched against a composite database of the human IPI protein database and its reversed complement using the Sequest algorithm. Search parameters allowed for a static modification of 57.02146 Da for Cys and a dynamic modification of addition of 15.0109 Da to Asp and Glu, and, when applicable, the stable isotope (10.00827 Da) and (8.01420 Da) on Arg and Lys, respectively. […] Localization of ADP-ribosylation sites was assessed by the ModScore algorithm based on the observation of site-specific fragment ions^25. Sites with scores≧13 (p≦0.05) were considered localized. Peptide quantification was performed as previously described^23 and ADP-ribosylation motifs were extracted using the Motif-X algorithm using a significance threshold of P<0.001^26.
# [4] = 1 μM Olaparib, 2 mM H2O2, HCT116 shPARG
smiles,measurement,setting,value
O=C(c1cc(Cc2n[nH]c(=O)c3ccccc23)ccc1F)N1CCN(C(=O)C2CC2)CC1 [Olaparib],increased PARylation after MNNG or H2O2 treatment,"[1]; PARG-depleted cells, pretreatment with the inhibitor",blocked
same,inhibition of tankyrase,[2],does not inhibit
same,decrease of a peptide from the RNA helicase DDX21,[3]; 1 μM Olaparib,more than 11 fold
same,modified peptides whose intensity decreased by more than two-fold,"[3]; 1 μM Olaparib 40 min pretreatment, 2 mM H2O2 5 min, HCT116 shPARG",more than 81%
same,ADP-ribosylation of two evolutionarily conserved Glu residues on PCNA,[3]; [4],dramatically decreased
same,"ADP-ribosylation of two tankyrase substrates, CASC3 and BLZF1",[3]; [4],little change
same,decrease in level of PARP1 automodified peptide comprising E483,[3]; [4],approximately 120 fold
same,sensitivity of the majority of PARylation events to treatment,[3]; quantitative mass spectrometric analysis,sensitive
NC(=O)c1ccc(I)c([N+](=O)[O-])c1 [Iniparib],H2O2-induced hyper-PARylation / PARP activity (immunoblotting),[1]; 50 μM,little effect
same,change in ADP-ribosylation level of most of the identified peptides,[3]; Iniparib 50 μM,less than two fold
same,decrease of a peptide from the RNA helicase DDX21,[3]; Iniparib 50 μM,about 4 fold
same,effect on PARP activity in intact cells,[3]; Iniparib 50 μM,negligible effect; also recorded: failed to inhibit PARP
same,potency relative to 3-AB,"[3]; Iniparib 50 μM, 3-AB 50 μM",lower than the prototype PARP inhibitor 3-AB
NC(=O)c1cccc2[nH]c(-c3ccc([C@@H]4CCCN4)cc3F)nc12 [A96692],H2O2-induced PARP activation (immunoblotting),[1],potently inhibited
same,change in protein Asp/Glu-ADP-ribosylation compared with that of Olaparib,[3],correlated well
CN(C)Cc1ccc(-c2nc3cccc4c3n2CCNC4=O)cc1 [AG14361],H2O2-induced PARP activation (immunoblotting),[1],potently inhibited
same,change in protein Asp/Glu-ADP-ribosylation compared with that of Olaparib,[3],correlated well
